Reference: patent US4024121A, “(Pyro)-Glu-His-Trp-D-Ser-Tyr-D-Leu-Leu-Arg-Pro-NHR and intermediates” (priority 1976, dated 1977)

Key:
LH-release = LH-release in rats after subcutaneous injection (procedure of Arimura et al.); type: in vivo; details: 50 ng subcutaneously
LH-RH activity [1] = test: LH-RH activity compared with the natural hormone
LH-RH activity [2] = details: literature reports; cited from earlier work

For `CC(C)C[C@H](NC(=O)CNC(=O)[C@H](Cc1ccc(O)cc1)NC(=O)[C@H](CO)NC(=O)[C@H](Cc1c[nH]c2ccccc12)NC(=O)[C@H](Cc1c[nH]cn1)NC(=O)[C@@H]1CCC(=O)N1)C(=O)N[C@@H](CCCNC(=N)N)C(=O)N1CCC[C@H]1C(=O)NCC(N)=O` [LH-RH, (pyro)-Glu-His-Trp-Ser-Tyr-Gly-Leu-Arg-Pro-Gly-NH2], the “duration of effect of the injection (LH release)” value (LH-release) was “no effects of the injection are observed after one hour” and the “time at which peak activity (LH release) is reached after injection” value (LH-release) was about 15 min.

With `CC(C)C[C@H](NC(=O)CNC(=O)[C@H](Cc1ccc(O)cc1)NC(=O)[C@@H](CO)NC(=O)[C@H](Cc1c[nH]c2ccccc12)NC(=O)[C@H](Cc1c[nH]cn1)NC(=O)[C@@H]1CCC(=O)N1)C(=O)N[C@@H](CCCNC(=N)N)C(=O)N1CCC[C@H]1C(=O)NCC(N)=O` [[D-Ser^4]-LH-RH] the “LH-RH activity relative to the natural hormone” value (LH-RH activity [1]) was “less than 5%”.

In the case of [D-Ala^6 ]-LH-RH, the “activity compared with LH-RH” value (LH-RH activity [2]) is given as “more active than LH-RH”.
